Laboratory results taken from article PMC6511404 (Biochemistry, 2019).

Legend:
E. coli enolase [1] = molecular target: T1, E. coli enolase (Escherichia coli, UniProt P0A6P9); assay: X-ray crystal structure, […] Å; format: binding
Target sequence in this assay (P0A6P9 whole entry): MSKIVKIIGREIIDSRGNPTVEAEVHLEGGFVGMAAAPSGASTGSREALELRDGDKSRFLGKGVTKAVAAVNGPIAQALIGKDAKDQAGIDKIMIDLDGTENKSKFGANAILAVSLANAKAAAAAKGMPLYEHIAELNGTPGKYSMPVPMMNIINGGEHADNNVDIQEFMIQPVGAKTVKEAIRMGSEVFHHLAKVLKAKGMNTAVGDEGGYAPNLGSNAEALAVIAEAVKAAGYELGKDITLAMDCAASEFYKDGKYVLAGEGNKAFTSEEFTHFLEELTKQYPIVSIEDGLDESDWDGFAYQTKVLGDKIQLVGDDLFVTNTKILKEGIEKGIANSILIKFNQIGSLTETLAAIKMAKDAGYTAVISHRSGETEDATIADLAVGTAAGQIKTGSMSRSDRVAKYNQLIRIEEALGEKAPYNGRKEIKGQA

E. coli enolase [2] = molecular target: T1, E. coli enolase; assay: enolase assay, % inhibition at […]; format: biochemical; conditions: read-out: % inhibition at 20 μM
Target sequence in this assay (P0A6P9 2-432): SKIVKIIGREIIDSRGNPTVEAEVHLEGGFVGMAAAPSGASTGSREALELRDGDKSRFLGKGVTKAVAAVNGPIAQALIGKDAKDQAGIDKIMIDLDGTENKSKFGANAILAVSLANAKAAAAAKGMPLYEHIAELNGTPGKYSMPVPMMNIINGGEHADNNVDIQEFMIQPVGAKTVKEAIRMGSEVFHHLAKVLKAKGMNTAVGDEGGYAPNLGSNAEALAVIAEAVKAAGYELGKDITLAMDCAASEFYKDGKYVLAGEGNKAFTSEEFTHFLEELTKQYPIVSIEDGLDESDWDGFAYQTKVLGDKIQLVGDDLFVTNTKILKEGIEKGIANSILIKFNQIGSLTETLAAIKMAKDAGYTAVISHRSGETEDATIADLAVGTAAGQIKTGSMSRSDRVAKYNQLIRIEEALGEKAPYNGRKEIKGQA

Row | Structure (SMILES) | X-ray crystal structure, 1.8 Å (E. coli enolase [1]) | inhibition at 20 µM (E. coli enolase [2]) [%]
1 | O=C(O)C(CO)OP(=O)(O)O (centres unmarked) [2-PGA] | we observe a fully occupied active site with 2-PGA and two Mg-ions bound (PDB 6BFy) | –
2 | NCCOCCOCCNC(=O)Cc1ccc(Nc2nc(NCc3ccc(F)cc3)nc(NCC3CCCCC3)n2)cc1 [compound 41, ENOblock] | – | 41
